Laboratory results as given in paper PMC4522657, “Identification of a DYRK1A Inhibitor that Induces Degradation of the Target Kinase using Co-chaperone CDC37 fused with Luciferase nanoKAZ” (Scientific Reports, 2015).

Molecular target: T1, MAP2K6_Cascade (Homo sapiens, UniProt P52564)
T1 construct: purchased Carna Biosciences
Assay: Kinase panel, CaNDY 1 µM
Type: biochemical
Conditions: CaNDY 1 µM relative to DMSO

T1 sequence (P52564 whole entry): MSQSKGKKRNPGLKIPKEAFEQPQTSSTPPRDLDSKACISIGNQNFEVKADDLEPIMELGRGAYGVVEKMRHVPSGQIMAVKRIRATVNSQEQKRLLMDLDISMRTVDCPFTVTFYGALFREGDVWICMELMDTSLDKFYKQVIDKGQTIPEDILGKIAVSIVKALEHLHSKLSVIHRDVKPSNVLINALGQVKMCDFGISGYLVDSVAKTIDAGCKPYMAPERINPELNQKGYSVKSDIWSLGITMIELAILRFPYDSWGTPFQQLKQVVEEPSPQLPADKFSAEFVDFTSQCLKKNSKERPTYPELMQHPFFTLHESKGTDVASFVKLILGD

[H]/N=C1/NC(=O)C(=Cc2ccc3c(c2)CCO3)S1 [CaNDY, (Z)-5-[(2,3-dihydrobenzofuran-5-yl)methylene]-2-iminothiazolidin-4-one]
remaining activity at 1 µM: 99.5%
